In US12187723B2 (BRISTOL-MYERS SQUIBB COMPANY, priority 2019, dated 2025):

Key:
human TLR7 = target: T1, human TLR7 (Homo sapiens, UniProt Q9NYK1); test: TLR7 inhibition reporter assay (HEK-Blue SEAP); assay type: cell-based; conditions: HEK-Blue cells overexpressing human TLR7, gardiquimod 7.5 μM, 22 hour incubation
T1 construct: host or cells: HEK-Blue cells
T1 sequence (Q9NYK1 27-1049): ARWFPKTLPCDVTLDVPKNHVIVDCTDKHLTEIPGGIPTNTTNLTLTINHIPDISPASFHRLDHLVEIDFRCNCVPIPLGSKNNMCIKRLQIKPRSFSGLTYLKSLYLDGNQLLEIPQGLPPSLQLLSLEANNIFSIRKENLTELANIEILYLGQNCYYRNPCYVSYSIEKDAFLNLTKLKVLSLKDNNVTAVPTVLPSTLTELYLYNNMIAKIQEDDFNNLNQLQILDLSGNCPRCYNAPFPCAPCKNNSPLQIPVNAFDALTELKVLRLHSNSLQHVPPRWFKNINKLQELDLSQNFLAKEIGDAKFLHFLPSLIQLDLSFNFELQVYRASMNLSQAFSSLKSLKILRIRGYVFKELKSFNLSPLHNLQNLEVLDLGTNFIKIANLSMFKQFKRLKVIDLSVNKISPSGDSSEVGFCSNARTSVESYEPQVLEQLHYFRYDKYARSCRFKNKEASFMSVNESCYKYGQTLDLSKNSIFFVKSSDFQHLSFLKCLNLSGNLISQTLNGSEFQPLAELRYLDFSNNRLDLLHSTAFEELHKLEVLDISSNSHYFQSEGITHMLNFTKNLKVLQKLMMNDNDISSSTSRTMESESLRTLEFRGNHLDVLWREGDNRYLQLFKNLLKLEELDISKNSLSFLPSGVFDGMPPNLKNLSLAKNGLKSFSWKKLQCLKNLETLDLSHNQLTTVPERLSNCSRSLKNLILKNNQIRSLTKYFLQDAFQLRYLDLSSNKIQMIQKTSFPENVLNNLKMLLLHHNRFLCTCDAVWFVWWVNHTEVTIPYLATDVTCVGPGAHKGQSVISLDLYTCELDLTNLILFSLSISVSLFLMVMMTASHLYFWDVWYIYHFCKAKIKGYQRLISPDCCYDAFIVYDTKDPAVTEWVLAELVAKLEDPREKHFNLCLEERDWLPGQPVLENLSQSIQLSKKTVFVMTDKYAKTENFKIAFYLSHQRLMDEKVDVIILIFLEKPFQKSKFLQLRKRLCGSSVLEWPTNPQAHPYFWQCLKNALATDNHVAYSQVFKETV
Summary of the method: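 22 h, 37° C, 5% CO2 incubation; compounds 0.05 nM-50 μM final; TLR7 cells 15000/well, TLR8 20,000/well. Readout: SEAP via HEK-Blue Detection medium. % inhibition = signal reduction versus agonist + DMSO wells, referenced to known inhibitor.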

human TLR9 = target: T2, human TLR9 (Homo sapiens, UniProt Q9NR96); test: TLR9 inhibition reporter assay (HEK-Blue SEAP); assay type: cell-based; conditions: HEK-Blue cells overexpressing human TLR9, ODN2006 5 nM, 22 hour incubation
T2 construct: host or cells: HEK-Blue cells
T2 sequence (Q9NR96 26-1032): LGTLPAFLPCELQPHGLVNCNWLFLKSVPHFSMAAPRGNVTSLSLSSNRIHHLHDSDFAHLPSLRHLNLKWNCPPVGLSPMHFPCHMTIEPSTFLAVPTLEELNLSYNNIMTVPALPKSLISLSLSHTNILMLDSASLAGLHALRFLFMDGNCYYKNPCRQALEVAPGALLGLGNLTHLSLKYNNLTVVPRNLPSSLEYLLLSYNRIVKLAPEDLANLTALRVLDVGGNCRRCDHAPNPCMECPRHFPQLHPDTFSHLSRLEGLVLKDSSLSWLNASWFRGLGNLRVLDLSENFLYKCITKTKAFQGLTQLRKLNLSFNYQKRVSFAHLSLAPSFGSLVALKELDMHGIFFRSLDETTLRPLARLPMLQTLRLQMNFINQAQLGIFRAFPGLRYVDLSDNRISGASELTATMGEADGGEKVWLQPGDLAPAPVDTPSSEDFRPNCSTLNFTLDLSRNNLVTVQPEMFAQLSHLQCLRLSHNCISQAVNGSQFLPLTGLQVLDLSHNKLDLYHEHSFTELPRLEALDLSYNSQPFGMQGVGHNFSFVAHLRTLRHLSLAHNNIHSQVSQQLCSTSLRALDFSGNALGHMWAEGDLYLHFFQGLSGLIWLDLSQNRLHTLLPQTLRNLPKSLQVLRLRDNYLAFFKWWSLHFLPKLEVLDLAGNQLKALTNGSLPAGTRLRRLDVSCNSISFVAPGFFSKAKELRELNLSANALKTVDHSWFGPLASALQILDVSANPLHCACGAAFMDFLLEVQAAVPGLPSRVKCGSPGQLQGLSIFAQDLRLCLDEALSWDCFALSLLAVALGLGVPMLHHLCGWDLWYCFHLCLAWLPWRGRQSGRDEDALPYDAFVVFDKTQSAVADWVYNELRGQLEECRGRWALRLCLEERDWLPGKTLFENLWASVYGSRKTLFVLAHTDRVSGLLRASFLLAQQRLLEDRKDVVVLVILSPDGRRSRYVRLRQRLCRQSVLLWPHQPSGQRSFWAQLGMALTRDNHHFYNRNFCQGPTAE
Summary of the method: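 Compound treatment: 30 min, RT, 0.05 nM–50 μM final. Agonist: TLR7 gardiquimod 7.5 μM; TLR8 R848 15.9 μM; TLR9 ODN2006 5 nM. Incubation 22 h, 37 °C, 5% CO2. Readout SEAP, HEK-Blue Detection.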

Row | IC50 (human TLR7) [µM] | IC50 (human TLR9) [µM] | SMILES
1 | 1.48 | 1.71 | CCCN1CCC(n2c(=O)[nH]c3cc(-c4cc(OC)c5ncnn5c4)ccc32)CC1 [Example 76, 5-(8-methoxy-[1,2,4]triazolo[1,5-a]pyridin-6-yl)-1-(1-propylpiperidin-4-yl)-1,3-dihydro-2H-benzo[d]imidazol-2-one]
2 | 1.53 | 0.417 | COc1cc(-c2ccc3c(c2)[nH]c(=O)n3C2CCN(C(C)C)CC2)cn2ncnc12 [Example 77, 1-(1-isopropylpiperidin-4-yl)-5-(8-methoxy-[1,2,4]triazolo[1,5-a]pyridin-6-yl)-1,3-dihydro-2H-benzo[d]imidazol-2-one]
3 | 0.016 | 4.78 | COc1cc(-c2cc3[nH]c(=O)n([C@H]4CC[C@@H](N(C)C(C)C)CC4)c3cc2C)cn2ncnc12 [Example 84, 1-((1s,4s)-4-(isopropyl(methyl)amino)cyclohexyl)-5-(8-methoxy-[1,2,4]triazolo[1,5-a]pyridin-6-yl)-6-methyl-1,3-dihydro-2H-benzo[d]imidazol-2-one]
4 | 0.0214 | 7.94 | COc1cc(-c2cc3[nH]c(=O)n([C@H]4CC[C@@H](N(C)C5CCOCC5)CC4)c3cc2C)cn2ncnc12 [Example 85, 5-(8-methoxy-[1,2,4]triazolo[1,5-a]pyridin-6-yl)-6-methyl-1-((1s,4s)-4-(methyl(tetrahydro-2H-pyran-4-yl)amino)cyclohexyl)-1,3-dihydro-2H-benzo[d]imidazol-2-one]
5 | 0.142 | 4.93 | COc1cc(-c2cc3[nH]c(=O)n(C4CCN(CC(=O)N(C)C)CC4)c3cc2C)cn2ncnc12 [Example 86, 2-(4-(5-(8-methoxy-[1,2,4]triazolo[1,5-a]pyridin-6-yl)-6-methyl-2-oxo-2,3-dihydro-1H-benzo[d]imidazol-1-yl)piperidin-1-yl)-N,N-dimethylacetamide]
6 | 0.497 | 22.4 | CNC(=O)CN1CCC(n2c(=O)[nH]c3cc(-c4cc(OC)c5ncnn5c4)c(C)cc32)CC1 [Example 87, 2-(4-(5-(8-methoxy-[1,2,4]triazolo[1,5-a]pyridin-6-yl)-6-methyl-2-oxo-2,3-dihydro-1H-benzo[d]imidazol-1-yl)piperidin-1-yl)-N-methylacetamide]
7 | 0.333 | 45.3 | CNC(=O)CN1CCC(n2c(=O)[nH]c3cc(-c4cc(C)c5ncnn5c4)c(C)cc32)CC1 [Example 88, N-methyl-2-(4-(6-methyl-5-(8-methyl-[1,2,4]triazolo[1,5-a]pyridin-6-yl)-2-oxo-2,3-dihydro-1H-benzo[d]imidazol-1-yl)piperidin-1-yl)acetamide]
8 | 0.111 | 29 | Cc1cc2c(cc1-c1cc(C)c3ncnn3c1)[nH]c(=O)n2C1CCN(CC(=O)N(C)C)CC1 [Example 89, N,N-dimethyl-2-(4-(6-methyl-5-(8-methyl-[1,2,4]triazolo[1,5-a]pyridin-6-yl)-2-oxo-2,3-dihydro-1H-benzo[d]imidazol-1-yl)piperidin-1-yl)acetamide]
9 | 2.16 | 14.6 | Cc1cc(-c2ccc3c(c2)[nH]c(=O)n3C2CCN(CC(=O)N(C)C)CC2)cn2ncnc12 [Example 90, N,N-dimethyl-2-(4-(5-(8-methyl-[1,2,4]triazolo[1,5-a]pyridin-6-yl)-2-oxo-2,3-dihydro-1H-benzo[d]imidazol-1-yl)piperidin-1-yl)acetamide]
10 | > 3.13 | > 50 | Cc1cc2c(cc1-c1cc(C)c3ncnn3c1)[nH]c(=O)n2C1CCN(CC(=O)N(C)C)CC1 [Example 91, N,N-dimethyl-2-(4-(6-methyl-5-(8-methyl-[1,2,4]triazolo[1,5-a]pyridin-6-yl)-2-oxo-2,3-dihydro-1H-benzo[d]imidazol-1-yl)piperidin-1-yl)acetamide]
11 | 0.82 | 21.1 | Cc1cc2c(cc1-c1cc(C)c3ncnn3c1)[nH]c(=O)n2[C@H]1CCCN(CC(N)=O)C1 [Example 92, (S)-2-(3-(6-methyl-5-(8-methyl-[1,2,4]triazolo[1,5-a]pyridin-6-yl)-2-oxo-2,3-dihydro-1H-benzo[d]imidazol-1-yl)piperidin-1-yl)acetamide]

Row | SMILES | IC50 (human TLR7) [µM] | IC50 (human TLR9) [µM]
12 | COc1cc(-c2ccc3c(c2)[nH]c(=O)n3C2CCN(CC3CCOCC3)CC2)cn2ncnc12 [Example 78, 5-(8-methoxy-[1,2,4]triazolo[1,5-a]pyridin-6-yl)-1-(1-((tetrahydro-2H-pyran-4-yl)methyl)piperidin-4-yl)-1,3-dihydro-2H-benzo[d]imidazol-2-one] | 1.12 | 2.85
13 | COc1cc(-c2ccc3c(c2)[nH]c(=O)n3C2CCN(CC3CC3)CC2)cn2ncnc12 [Example 79, 1-(1-(cyclopropylmethyl)piperidin-4-yl)-5-(8-methoxy-[1,2,4]triazolo[1,5-a]pyridin-6-yl)-1,3-dihydro-2H-benzo[d]imidazol-2-one] | > 3.13 | 3.9
14 | COc1cc(-c2ccc3c(c2)[nH]c(=O)n3C2CCN(C3COC3)CC2)cn2ncnc12 [Example 80, 5-(8-methoxy-[1,2,4]triazolo[1,5-a]pyridin-6-yl)-1-(1-(oxetan-3-yl)piperidin-4-yl)-1,3-dihydro-2H-benzo[d]imidazol-2-one] | > 3.13 | 39.6
15 | COc1cc(-c2ccc3c(c2)[nH]c(=O)n3C2CCN(C3CCOC3)CC2)cn2ncnc12 (stereo not shown) [Example 81, 5-(8-methoxy-[1,2,4]triazolo[1,5-a]pyridin-6-yl)-1-(1-(tetrahydrofuran-3-yl)piperidin-4-yl)-1,3-dihydro-2H-benzo[d]imidazol-2-one] | 2.64 | 3.88
16 | COc1cc(-c2ccc3c(c2)[nH]c(=O)n3C2CCN(CC3CCOC3)CC2)cn2ncnc12 (stereo not shown) [Example 82, 5-(8-methoxy-[1,2,4]triazolo[1,5-a]pyridin-6-yl)-1-(1-((tetrahydrofuran-3-yl)methyl)piperidin-4-yl)-1,3-dihydro-2H-benzo[d]imidazol-2-one] | 1.3 | 4.77
17 | COc1cc(-c2ccc3c(c2)[nH]c(=O)n3C2CCN(C3CCC3)CC2)cn2ncnc12 [Example 83, 1-(1-cyclobutylpiperidin-4-yl)-5-(8-methoxy-[1,2,4]triazolo[1,5-a]pyridin-6-yl)-1,3-dihydro-2H-benzo[d]imidazol-2-one] | 2.48 | 5.37
